In US8802597B2, “Herbicidal pyrimidines” (E I du Pont de Nemours and Company, priority 2003, dated 2014):

How the values were obtained:
Assay in all cases: Test G pre/postemergence
Assay type in all cases: in vivo
[1] = tested on: Italian ryegrass (Lolium multiflorum)
In short: (§1)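 Seeds or nutlets were planted and treated preemergence with compound formulated in a non-phytotoxic solvent mixture containing surfactant; plants 2 to 18 cm tall (1- to 4-leaf stage) received postemergence sprays of the same formulation. After 12 to 21 days in a greenhouse, injury was rated visually against untreated controls on a 0–100 scale (100 = complete control).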

[2] = tested on: black mustard (Brassica nigra)
In short: as §1

[3] = tested on: common chickweed (Stellaria media)
In short: as §1

[4] = tested on: common mallow (Malva sylvestris)
In short: as §1

[5] = tested on: common ragweed (Ambrosia elatior)
In short: as §1

[6] = tested on: downy bromegrass (Bromus tectorum)
In short: as §1

[7] = tested on: field bindweed (Convolvulus arvensis)
In short: as §1

[8] = tested on: goosegrass (Eleusine indica)
In short: as §1

[9] = tested on: green foxtail (Setaria viridis)
In short: as §1

[10] = tested on: pitted morningglory (Ipomoea lacunosa)
In short: as §1

[11] = tested on: prickly sida (Sida spinosa)
In short: as §1

[12] = tested on: quackgrass (Elytrigia repens)
In short: as §1

[13] = tested on: southern sandbur (Cenchrus echinatus)
In short: as §1

[14] = tested on: tropical spiderwort (Commelina benghalensis)
In short: as §1

[15] = Postemergence, 250 g ai/ha, scale 0 to 100
[16] = Postemergence, 16 g ai/ha, scale 0 to 100
[17] = Postemergence, 31 g ai/ha, scale 0 to 100
[18] = Postemergence, 62 g ai/ha, scale 0 to 100
[19] = Postemergence, 125 g ai/ha, scale 0 to 100
[20] = Preemergence, 16 g ai/ha, scale 0-100
[21] = Preemergence, 31 g ai/ha, scale 0-100
[22] = Preemergence, 62 g ai/ha, scale 0-100
[23] = Preemergence, 125 g ai/ha, scale 0-100
[24] = Preemergence, 250 g ai/ha, scale 0-100

SMILES: Nc1nc(C2CC2)nc(C(=O)[O-])c1Cl.[Na+] [Compound 77, 6-amino-5-chloro-2-cyclopropyl-4-pyrimidinecarboxylic acid monosodium salt]
- Plant response rating, Ryegrass, Italian [1, 15]: 40
- Plant response rating, Ryegrass, Italian [1, 16]: 0
- Plant response rating, Ryegrass, Italian [1, 17]: 20
- Plant response rating, Ryegrass, Italian [1, 18]: 30
- Plant response rating, Ryegrass, Italian [1, 19]: 30
- Plant response rating, Ryegrass, Italian [1, 20]: 0
- Plant response rating, Ryegrass, Italian [1, 21]: 0
- Plant response rating, Ryegrass, Italian [1, 22]: 0
- Plant response rating, Ryegrass, Italian [1, 23]: 40
- Plant response rating, Ryegrass, Italian [1, 24]: 75
- Plant response rating, Black Mustard [2, 15]: 60
- Plant response rating, Black Mustard [2, 16]: 25
- Plant response rating, Black Mustard [2, 17]: 40
- Plant response rating, Black Mustard [2, 18]: 50
- Plant response rating, Black Mustard [2, 19]: 60
- Plant response rating, Black Mustard [2, 20]: 60
- Plant response rating, Black Mustard [2, 21]: 60
- Plant response rating, Black Mustard [2, 22]: 85
- Plant response rating, Black Mustard [2, 23]: 90
- Plant response rating, Black Mustard [2, 24]: 95
- Plant response rating, Chickweed [3, 15]: 100
- Plant response rating, Chickweed [3, 16]: 10
- Plant response rating, Chickweed [3, 17]: 80
- Plant response rating, Chickweed [3, 18]: 90
- Plant response rating, Chickweed [3, 19]: 90
- Plant response rating, Chickweed [3, 21]: 70
- Plant response rating, Chickweed [3, 22]: 90
- Plant response rating, Chickweed [3, 23]: 100
- Plant response rating, Chickweed [3, 24]: 100
- Plant response rating, Mallow [4, 15]: 95
- Plant response rating, Mallow [4, 16]: 65
- Plant response rating, Mallow [4, 17]: 75
- Plant response rating, Mallow [4, 18]: 80
- Plant response rating, Mallow [4, 19]: 85
- Plant response rating, Mallow [4, 20]: 30
- Plant response rating, Mallow [4, 21]: 40
- Plant response rating, Mallow [4, 22]: 50
- Plant response rating, Mallow [4, 23]: 80
- Plant response rating, Mallow [4, 24]: 80
- Plant response rating, Ragweed [5, 15]: 100
- Plant response rating, Ragweed [5, 16]: 75
- Plant response rating, Ragweed [5, 17]: 75
- Plant response rating, Ragweed [5, 18]: 95
- Plant response rating, Ragweed [5, 19]: 98
- Plant response rating, Ragweed [5, 20]: 80
- Plant response rating, Ragweed [5, 21]: 95
- Plant response rating, Ragweed [5, 22]: 100
- Plant response rating, Ragweed [5, 23]: 100
- Plant response rating, Ragweed [5, 24]: 100
- Plant response rating, Bromegrass, Downy [6, 15]: 75
- Plant response rating, Bromegrass, Downy [6, 16]: 0
- Plant response rating, Bromegrass, Downy [6, 17]: 20
- Plant response rating, Bromegrass, Downy [6, 18]: 35
- Plant response rating, Bromegrass, Downy [6, 19]: 65
- Plant response rating, Bromegrass, Downy [6, 20]: 0
- Plant response rating, Bromegrass, Downy [6, 21]: 0
- Plant response rating, Bromegrass, Downy [6, 22]: 0
- Plant response rating, Bromegrass, Downy [6, 23]: 10
- Plant response rating, Bromegrass, Downy [6, 24]: 75
- Plant response rating, Bindweed, Field [7, 15]: 100
- Plant response rating, Bindweed, Field [7, 16]: 70
- Plant response rating, Bindweed, Field [7, 17]: 98
- Plant response rating, Bindweed, Field [7, 18]: 98
- Plant response rating, Bindweed, Field [7, 19]: 100
- Plant response rating, Bindweed, Field [7, 20]: 80
- Plant response rating, Bindweed, Field [7, 21]: 90
- Plant response rating, Bindweed, Field [7, 22]: 95
- Plant response rating, Bindweed, Field [7, 23]: 100
- Plant response rating, Bindweed, Field [7, 24]: 100
- Plant response rating, Goosegrass [8, 15]: 65
- Plant response rating, Goosegrass [8, 16]: 0
- Plant response rating, Goosegrass [8, 17]: 15
- Plant response rating, Goosegrass [8, 18]: 50
- Plant response rating, Goosegrass [8, 19]: 50
- Plant response rating, Goosegrass [8, 20]: 0
- Plant response rating, Goosegrass [8, 21]: 5
- Plant response rating, Goosegrass [8, 22]: 5
- Plant response rating, Goosegrass [8, 23]: 25
- Plant response rating, Goosegrass [8, 24]: 55
- Plant response rating, Foxtail, Green [9, 15]: 40
- Plant response rating, Foxtail, Green [9, 16]: 0
- Plant response rating, Foxtail, Green [9, 17]: 0
- Plant response rating, Foxtail, Green [9, 18]: 35
- Plant response rating, Foxtail, Green [9, 19]: 40
- Plant response rating, Foxtail, Green [9, 20]: 0
- Plant response rating, Foxtail, Green [9, 21]: 5
- Plant response rating, Foxtail, Green [9, 22]: 65
- Plant response rating, Foxtail, Green [9, 23]: 85
- Plant response rating, Foxtail, Green [9, 24]: 90
- Plant response rating, Morningglory [10, 15]: 100
- Plant response rating, Morningglory [10, 16]: 50
- Plant response rating, Morningglory [10, 17]: 60
- Plant response rating, Morningglory [10, 18]: 90
- Plant response rating, Morningglory [10, 19]: 100
- Plant response rating, Morningglory [10, 20]: 70
- Plant response rating, Morningglory [10, 21]: 90
- Plant response rating, Morningglory [10, 22]: 100
- Plant response rating, Morningglory [10, 23]: 100
- Plant response rating, Morningglory [10, 24]: 100
- Plant response rating, Prickly Sida [11, 15]: 80
- Plant response rating, Prickly Sida [11, 16]: 70
- Plant response rating, Prickly Sida [11, 17]: 75
- Plant response rating, Prickly Sida [11, 18]: 80
- Plant response rating, Prickly Sida [11, 19]: 80
- Plant response rating, Prickly Sida [11, 20]: 70
- Plant response rating, Prickly Sida [11, 21]: 75
- Plant response rating, Prickly Sida [11, 22]: 85
- Plant response rating, Prickly Sida [11, 23]: 90
- Plant response rating, Prickly Sida [11, 24]: 95
- Plant response rating, Quackgrass [12, 15]: 60
- Plant response rating, Quackgrass [12, 16]: 0
- Plant response rating, Quackgrass [12, 17]: 10
- Plant response rating, Quackgrass [12, 18]: 40
- Plant response rating, Quackgrass [12, 19]: 60
- Plant response rating, Quackgrass [12, 20]: 0
- Plant response rating, Quackgrass [12, 21]: 0
- Plant response rating, Quackgrass [12, 22]: 10
- Plant response rating, Quackgrass [12, 23]: 50
- Plant response rating, Quackgrass [12, 24]: 80
- Plant response rating, Sandbur [13, 15]: 40
- Plant response rating, Sandbur [13, 16]: 0
- Plant response rating, Sandbur [13, 17]: 0
- Plant response rating, Sandbur [13, 18]: 10
- Plant response rating, Sandbur [13, 19]: 35
- Plant response rating, Sandbur [13, 20]: 0
- Plant response rating, Sandbur [13, 21]: 20
- Plant response rating, Sandbur [13, 22]: 100
- Plant response rating, Sandbur [13, 23]: 100
- Plant response rating, Sandbur [13, 24]: 100
- Plant response rating, Spiderwort [14, 15]: 100
- Plant response rating, Spiderwort [14, 16]: 10
- Plant response rating, Spiderwort [14, 17]: 50
- Plant response rating, Spiderwort [14, 18]: 75
- Plant response rating, Spiderwort [14, 19]: 90
- Plant response rating, Spiderwort [14, 20]: 60
- Plant response rating, Spiderwort [14, 21]: 85
- Plant response rating, Spiderwort [14, 22]: 95
- Plant response rating, Spiderwort [14, 23]: 95
- Plant response rating, Spiderwort [14, 24]: 100
